Source: patent US20250207167A1, “ASPERGILLUS SP. L14-OE::LAEA2 AND APPLICATION THEREOF IN PRODUCING CYCLIC TRIPEPTIDES” (Zhejiang University of Technology, priority 2023, published 2025)
Converted amounts (≈) assume the structure as drawn.

Tests used:
[1] = test system: human brain glioma cell line (HEB); assay: SRB tumor cell growth inhibition, HEB; format: cell-based; details: 72 h, 3 days, read-out: human brain glioma cell line HEB growth inhibition rate %
Description: (§1) A Sulforhodamine B (SRB) colorimetric method is used to perform in vitro growth inhibition experiments on tumor cells with the isolated monomeric compounds A human brain glioma cell line (HEB) and a human hepatocellular carcinoma cell line (Hep-G2) both from Cell Resource Center, Institute of Basic Medical Sciences ([…]), China. Tumor cells in a logarithmic growth phase are selected and digested with trypsin followed by adjusting a cell concentration to 2×10^4 cells/mL with a Roswell Park memorial institute 1640 (RPMI 1640) medium containing 10% fetal bovine serum to obtain a tumor cell suspension. Sample solutions: the compound I, the compound II, and the compound III prepared in the embodiment 3 are separately added with DMSO to prepare 200 μM of the sample solutions. Control antibiotic solution: The antibiotic 5-fluorouracil (5-FU) is diluted with DMSO to prepare 100 μM of the control antibiotic solution. The tumor cell suspensions in Table 11 are inoculated into a 96-well culture plate at 190 μL per well, and then incubated at 37° C. with 5% carbon dioxide (CO2) for 24 hours. The culture wells are divided into drug wells, control wells, and blank wells. […] The blank wells are added with 10 μL of the RPMI 1640 medium containing 10% fetal bovine serum and an equal volume of DMSO as a solvent. The 96-well culture plate is then at 37° C. with 5% CO2 for incubation for 3 days followed by removing culture medium. Then, each well of the 96-well culture plate is slightly added with 100 μL of the 50% TCA solution pre-cooled at 4° C., and then allowed to stand for 5 min, followed by moving the 96-well culture plate to 4° C. for 1 hour to fix cells to obtain a cell-fixed plate. After discarding the fixing solution from the cell-fixed plate, the wells of the cell-fixed plate are washed five times with distilled water to remove TCA and then air-dried for 1 hour to obtain a first dried plate. Each well of the first dried plate is added with 80 μL of the 0.4% SRB solution for staining at room temperature for 30 min to obtain a stained plate. After discarding the staining solution of the stained plate, the stained plate is washed five times by 1% acetic acid aqueous solution to fully remove unbound SRB and then air-dried for 1 hour to obtain a second dried plate. Each well of the second dried plate is added with 150 μL of the 10 mM Tris-based solution for dissolving, and then oscillated for 5 min on a mini shaker (Mini shaker Kylin-Bell Lab instruments) to obtain an oscillated plate. Samples from each well of the oscillated plate are taken and an OD value at 570 nm is measured for each sample by using an M5 microplate reader.

[2] = test system: Candida albicans ATCC 10231; assay: Antifungal activity against Candida albicans (serial dilution MIC); format: cell-based; details: 48 hours at 30° C., absorbance at 600 nm; for MIC: Candida albicans, ATCC10231
Procedure: Candida albicans ATCC 10231, as an indicator strain, is activated for 3 days at 30° C. on the Sabouraud solid medium, and then amplified for 2 days at 30° C. and 180 rpm in the Sabouraud liquid medium to obtain an indicator liquid for antifungal activity testing.
An outermost ring of a 96-well plate is filled with 100 μL of the Sabouraud liquid medium for blank culture to prevent contamination; a first well of the 96-well plate is added with samples and the indicator liquid, with a total solution volume of 200 μL and a sample concentration of 128 μg/mL in the first well. A “serial dilution method” is used to achieve sample concentrations of 64, 32, 16, 8, 4, 2, 1, 0.5, and 0.25 μg/mL respectively in subsequent wells. Each sample has three parallel controls, and is incubated for 48 hours at 30° C. Then, the absorbance of the indicator liquid is measured at 600 nm using a microplate reader, and minimum inhibitory concentrations (MIC) of the compounds are recorded. The samples are the compound I, the compound II, and the compound III, with Amphotericin B as the control.

[3] = test system: human hepatocellular carcinoma cell line (Hep-G2); assay: SRB tumor cell growth inhibition, Hep-G2; format: cell-based; details: HepG2, 72 h, 3 days, read-out: human hepatocellular carcinoma cell line Hep-G2 growth inhibition rate %
Description: as §1

[4] = DPPH antioxidant activity test; format: biochemical; details: for Antioxidant activity IC50 value: DPPH scavenging, 37° C. half an hour
Procedure: 1 mg of solid DPPH is dissolved in 24 mL of methanol and then ultrasonicated for 5 min, followed by shaking thoroughly to obtain DPPH solution to ensure uniformity throughout the DPPH solution. 1 mL of the DPPH solution is taken and diluted by adding 0.5 mL of 95% methanol to obtain a diluted solution with an absorbance in a range of 0.6-1.0. The samples are added with methanol to prepare 1 mg/mL of sample solutions. The sample solutions are separately added to the DPPH solution while mixing continuously with a small start amount to obtain mixed solutions and an addition amount of the sample solutions gradually increases. Solution decolorization is observed when adding the sample solutions. When color of the mixed solutions has essentially faded, a maximum amount of the added sample solution is recorded. Based on the maximum amount, five additional amounts are set in an arithmetic sequence moving backwards. A final measurement is performed according to the arithmetic sequence, and for each amount, three parallel data points are measured. An absorbance value (A value) at each amount may be measured after placing the mixed solutions in a 37° C. oven for half an hour. An experimental antioxidant concentration serves as an x-axis and a scavenging rate serves as a y-axis, then a linear regression equation is calculated. 50% scavenging rate is substituted into the linear regression equation to obtain a corresponding x-axis value, which is a half-maximal inhibitory concentration (IC50) value. The samples are the compound I, the compound II, and the compound III, with vitamin C (Vc) as the control. The scavenging rate=((A0−A)/A0)×100; where A0 represents a value before adding the sample solutions, and A represents a value after adding the sample solutions.

Candida albicans = details: reported in literature; cited from earlier work
[5] = test system: silkworms and American moths; details: against silkworms and American moths; literature; cited from earlier work
[6] = according to literature searches; cited from earlier work

Compound	MIC [2]	Antioxidant activity IC50 value [4]	inhibition at 10 µM [1]	inhibition at 10 µM [3]	antioxidant activity (in words) [4]	also measured
C/C=C/C=C/C=C/C(=O)N[C@H]1CCCNC(=O)[C@H](C)NC(=O)[C@H](C(C)C)N(C)C1=O [Compound II, JBIR-15]	32 µg/mL (≈ 76.5 µM)	400 µg/mL	-6.04%	11.8%	moderate antioxidant activity	anti-Candida albicans activity, minimum inhibitory concentration (MIC) (Candida albicans): 30 µg/mL
O=c1[nH]cc(F)c(=O)[nH]1 [Compound 5-FU, 5-fluorouracil, reference compound]						inhibition at 5 µM ([1]; positive control, 5 μM): 69.5%; inhibition at 5 µM ([3]; positive control, 5 μM): 71.3%
O=C1O[C@H]([C@@H](O)CO)C(O)=C1O [Vc, vitamin C, reference compound]		9 µg/mL				
C[C@@H]1[C@H](O)[C@@H](C)/C=C/C=C/C=C/C=C/C=C/C=C/C=C/[C@H](O[C@@H]2O[C@H](C)[C@@H](O)[C@H](N)[C@@H]2O)C[C@@H]2O[C@](O)(C[C@@H](O)C[C@@H](O)[C@H](O)CC[C@@H](O)C[C@@H](O)CC(=O)O[C@H]1C)C[C@H](O)[C@H]2C(=O)O [Amphotericin B, reference compound]						MIC value against the Candida albicans ATCC 10231 [2]: 2 µg/mL (≈ 2.16 µM)

Now from value to molecule, other results behind:

MIC [2]	Antioxidant activity IC50 value [4]	Compound	inhibition at 10 µM [1]	inhibition at 10 µM [3]	antioxidant activity (in words) [4]	also measured
> 128 µg/mL	430 µg/mL	C/C=C/C=C/C=C/C(=O)N[C@H]1CCCCNC(=O)[C@H](C)N(C)C(=O)[C@H](C(C)C)N(C)C1=O [Compound III, sclerotiotide C]	-13.7%	21.1%	moderate antioxidant activity	
> 128 µg/mL	420 µg/mL	C/C=C/C=C/C=C/C(=O)N[C@H]1CCCNC(=O)[C@H](C)N(C)C(=O)[C@H](C(C)C)N(C)C1=O [Compound I, aspochracin]	-19.9%	-17.9%	moderate antioxidant activity	insecticidal activity [5]: recognized insecticidal activity; mammalian toxicity [6]: extremely low mammalian toxicity
